Values quoted from earlier work, collected in patent US20210260003A9 (AZIENDE CHIMICHE RIUNITE ANGELINI FRANCESCO A.C.R.A.F. …, priority 2017, published 2021).

Experiments:
[1] = orally administered

| peak concentration (time) [1] [h] | solubility in water [mg/mL] | Compound |
| --- | --- | --- |
| 0.5 to 2 | – | CC(C(=O)O)c1cccc(C(=O)c2ccccc2)c1 (centres unmarked) [ketoprofen] |
| – | 600 | hydroxypropyl-β-cyclodextrin |
